# Where a SMILES comes first, the peptide text is derived from it. [ ]: non-standard residue; d: D form.
# Columns and labels:
# MDREC 1238 = assay type: cell-based, Escherichia coli
# Procedure, shortened: (§1)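 Peptides were serially diluted twofold in Mueller-Hinton medium and combined 1:1 with bacterial suspensions prepared at 2×10^6 CFU. Readout was the minimal inhibitory concentration, i.e. the lowest concentration with no growth.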
# P. aeruginosa = assay: microbe, parasite or virus in culture; assay type: cell-based, Pseudomonas aeruginosa
# Procedure, shortened: as §1
# MDRPA 2002 = assay type: cell-based, Pseudomonas aeruginosa
# Procedure, shortened: as §1
# MDRPA 2003 = assay type: cell-based, Pseudomonas aeruginosa
# Procedure, shortened: as §1
# A. baumannii = assay: microbe, parasite or virus in culture; assay type: cell-based, Acinetobacter baumannii
# Procedure, shortened: as §1
# MDRAB 12035 [1] = assay: microbe, parasite or virus in culture; assay type: cell-based, Acinetobacter baumannii
# Procedure, shortened: as §1
# MDRAB 12036 = assay type: cell-based, Acinetobacter baumannii
# Procedure, shortened: as §1
# S. typhimurium = assay: microbe, parasite or virus in culture; assay type: cell-based, Salmonella typhimurium
# Procedure, shortened: as §1
# MDRST 8007 = assay: Minimal inhibitory concentration (MIC), single agent; assay type: cell-based, Salmonella typhimurium; settings: agent alone
# Procedure, shortened: as §1
# B. subtilis = assay: microbe, parasite or virus in culture; assay type: cell-based, Bacillus subtilis
# Procedure, shortened: as §1
# S. epidermidis = assay: microbe, parasite or virus in culture; assay type: cell-based, Staphylococcus epidermidis
# Procedure, shortened: as §1
# S. aureus = assay: microbe, parasite or virus in culture; assay type: cell-based, Staphylococcus aureus
# Procedure, shortened: as §1
# MRSA 3114 = assay type: cell-based, Staphylococcus aureus; settings: 3114
# Procedure, shortened: as §1
# MRSA 3126 = assay type: cell-based, Staphylococcus aureus; settings: 3126
# Procedure, shortened: as §1
# MDREC 1229 = assay: MIC of antibiotic during combined treatment with antimicrobial peptide; assay type: cell-based, Escherichia coli
# Description: (§2) Specifically, the strains described in [Table 2] were prepared and diluted with an MH medium such that the number of bacteria was 2×10^6 colony-forming units (CFUs) per 1 ml, 100 μl of the diluted strains was each aliquoted into a 96-well microtiter plate, and then 50 μl of a peptide solution diluted with the MH medium from the MIC value (solution diluted stepwise at 2: 1) was added to each well. Thereafter, the MIC value of each mixed solution was determined by diluting the antibiotic solution with the MH medium, adding 50 μl of the diluted solution to each well, and performing an experiment even under a reversed condition.
# MDRAB 12035 [2] = assay: as above; assay type: cell-based, Acinetobacter baumannii
# Description: as §2
# [3] = peptide treatment concentration 1 μg/ml
# [4] = peptide treatment concentration 2 μg/ml
# [5] = peptide treatment concentration 4 μg/ml
# [6] = peptide treatment concentration 6 μg/ml
# [7] = peptide treatment concentration 8 μg/ml
# [8] = peptide treatment concentration 16 μg/ml
# [9] = peptide treatment concentration 32 μg/ml
# [10] = peptide treatment concentration 64 μg/ml
smiles,measurement,setting,value
"CC[C@H](C)[C@H](NC(=O)[C@H](CCCCN)NC(=O)[C@H](Cc1c[nH]c2ccccc12)NC(=O)[C@@H](N)CCCNC(=N)N)C(=O)N[C@@H](Cc1ccccc1)C(=O)N[C@@H](CCCCN)C(=O)N[C@@H](CCCCN)C(=O)N[C@H](C(=O)N[C@H](CC(C)C)C(=O)N[C@@H](CCCCN)C(=O)N[C@@H](CC(C)C)C(=O)N[C@@H](CC(C)C)C(=O)N[C@@H](Cc1c[nH]cn1)C(=O)N[C@@H](CCC(=O)O)C(=O)N[C@@H](C)C(=O)N[C@@H](CCCCN)C(=O)N[C@@H](CCCCN)C(=O)N[C@@H](Cc1c[nH]c2ccccc12)C(N)=O)[C@@H](C)CC [PapMA-24, RWK IFK KIl KLL HEA KKW-NH2] (H-RWKIFKKI[dL]KLLHEAKKW-NH2; N-terminus assumed)",Minimal inhibitory concentration MIC,MDREC 1238,32 µg/mL
same,Minimal inhibitory concentration MIC,P. aeruginosa,64 µg/mL
same,Minimal inhibitory concentration MIC,MDRPA 2002,64 µg/mL
same,Minimal inhibitory concentration MIC,MDRPA 2003,64 µg/mL
same,Minimal inhibitory concentration MIC,A. baumannii,16 µg/mL
same,"Peptide MIC, peptide alone",A. baumannii,16 µg/mL
same,Antibacterial activity relative to PapMA-1,A. baumannii; A. baumannii and S. typhimurium,at least twice as high
same,Minimal inhibitory concentration MIC,MDRAB 12035 [1],32 µg/mL
same,"Peptide MIC, peptide alone",MDRAB 12035 [1],32 µg/mL
same,Minimal inhibitory concentration MIC,MDRAB 12036,32 µg/mL
same,Minimal inhibitory concentration MIC,S. typhimurium,32 µg/mL
same,Minimal inhibitory concentration MIC,MDRST 8007,32 µg/mL
same,Minimal inhibitory concentration MIC,B. subtilis,>128 µg/mL
same,Minimal inhibitory concentration MIC,S. epidermidis,>128 µg/mL
same,Minimal inhibitory concentration MIC,S. aureus,>128 µg/mL
same,Minimal inhibitory concentration MIC,MRSA 3114,>128 µg/mL
same,Minimal inhibitory concentration MIC,MRSA 3126,>128 µg/mL
same,"Antibiotic MIC, Erythromycin",MDREC 1229; [3],128 µg/mL
same,"Antibiotic MIC, Linezolid",MDREC 1229; [3],>128 µg/mL
same,"Antibiotic MIC, Vancomycin",MDREC 1229; [3],>128 µg/mL
same,"Antibiotic MIC, Erythromycin",MDREC 1229; [4],64 µg/mL
same,"Antibiotic MIC, Linezolid",MDREC 1229; [4],128 µg/mL
same,"Antibiotic MIC, Vancomycin",MDREC 1229; [4],>128 µg/mL
same,"Antibiotic MIC, Erythromycin",MDREC 1229; [5],32 µg/mL
same,"Antibiotic MIC, Linezolid",MDREC 1229; [5],64 µg/mL
same,"Antibiotic MIC, Vancomycin",MDREC 1229; [5],>128 µg/mL
same,"Antibiotic MIC, Erythromycin",MDREC 1229; [6],8 µg/mL
same,"Antibiotic MIC, Linezolid",MDREC 1229; [6],64 µg/mL
same,"Antibiotic MIC, Vancomycin",MDREC 1229; [6],64 µg/mL
same,"Antibiotic MIC, Erythromycin",MDREC 1229; [7],2 µg/mL
same,"Antibiotic MIC, Linezolid",MDREC 1229; [7],32 µg/mL
same,"Antibiotic MIC, Vancomycin",MDREC 1229; [7],32 µg/mL
same,"Antibiotic MIC, Erythromycin",MDREC 1229; [8],1 µg/mL
same,"Antibiotic MIC, Linezolid",MDREC 1229; [8],8 µg/mL
same,"Antibiotic MIC, Vancomycin",MDREC 1229; [8],16 µg/mL
same,"Antibiotic MIC, Erythromycin",MDREC 1229; [9],0 µg/mL
same,"Antibiotic MIC, Linezolid",MDREC 1229; [9],0 µg/mL
same,"Antibiotic MIC, Vancomycin",MDREC 1229; [9],0 µg/mL
same,"Antibiotic MIC, Erythromycin",MDREC 1229; [10],0 µg/mL
same,"Antibiotic MIC, Linezolid",MDREC 1229; [10],0 µg/mL
same,"Antibiotic MIC, Vancomycin",MDREC 1229; [10],0 µg/mL
same,Erythromycin MIC during combined treatment with peptide,MDRAB 12035 [2]; [3],32 µg/mL
same,Linezolid MIC during combined treatment with peptide,MDRAB 12035 [2]; [3],>128 µg/mL
same,Vancomycin MIC during combined treatment with peptide,MDRAB 12035 [2]; [3],>128 µg/mL
same,Erythromycin MIC during combined treatment with peptide,MDRAB 12035 [2]; [4],32 µg/mL
same,Linezolid MIC during combined treatment with peptide,MDRAB 12035 [2]; [4],>128 µg/mL
same,Vancomycin MIC during combined treatment with peptide,MDRAB 12035 [2]; [4],>128 µg/mL
same,Erythromycin MIC during combined treatment with peptide,MDRAB 12035 [2]; [5],16 µg/mL
same,Linezolid MIC during combined treatment with peptide,MDRAB 12035 [2]; [5],64 µg/mL
same,Vancomycin MIC during combined treatment with peptide,MDRAB 12035 [2]; [5],64 µg/mL
same,Erythromycin MIC during combined treatment with peptide,MDRAB 12035 [2]; [6],2 µg/mL
same,Linezolid MIC during combined treatment with peptide,MDRAB 12035 [2]; [6],16 µg/mL
